Assay results published in BindingDB's records for PubMed 36270088 (n/a, 2022).

Assay: Antagonist activity against CXCR4 in human SUP-T1 cells assessed as inhibition of SDF-1alpha-induced cell migration preincubated with cells for 30 mins followed by incubation with SDF-1alpha for 3 hrs by CellTiter-96 reagent based transwell assay

| SMILES | IC50 [µM] |
| --- | --- |
| CC(C)C[C@@H](N)C(=O)NCC(=O)N[C@H](C)C(=O)N[C@H](CO)C(=O)N[C@H](Cc1c[nH]c2ccccc12)C(=O)N[C@H](Cc1cnc[nH]1)C(=O)N[C@H](CCCNC(=N)N)C(=O)N1CCC[C@@H]1C(=O)N[C@H](CC(=O)O)C(=O)N[C@H](CCCCN)C(=O)N[C@H](CCCCN)C(=O)N[C@H](CCCNC(=N)N)C(=O)N(CCCCCC(=O)O)[C@@H](CCCCN)C(=O)N[C@@H](CCCNC(=N)N)C(=O)N[C@@H](CCCCN)C(=O)N[C@@H](CCC(N)=O)C(=O)N[C@@H](CCCNC(=N)N)C(=O)NCC(=O)N1CCC[C@H]1C(=O)NCC(=O)N[C@@H](CCCNC(=N)N)C(=O)N[C@@H](C)C(=O)N[C@@H](Cc1ccccc1)C(N)=O | 6.08 |
| CC(C)C[C@@H](N)C(=O)NCC(=O)N[C@H](C)C(=O)N[C@H](CO)C(=O)N[C@H](Cc1c[nH]c2ccccc12)C(=O)N[C@H](Cc1cnc[nH]1)C(=O)N[C@H](CCCNC(=N)N)C(=O)N1CCC[C@@H]1C(=O)N[C@H](CC(=O)O)C(=O)N[C@H](CCCCN)C(=O)N[C@H](CCCCN)C(=O)N[C@H](CCCNC(=N)N)C(=O)N(CCCCCC(=O)O)[C@H](CCCCN)C(=O)N[C@H](CCCNC(=N)N)C(=O)N[C@H](CCCCN)C(=O)N[C@H](CCC(N)=O)C(=O)N[C@H](CCCNC(=N)N)C(=O)NCC(=O)N1CCC[C@@H]1C(=O)NCC(=O)N[C@H](CCCNC(=N)N)C(=O)N[C@H](C)C(=O)N[C@H](Cc1ccccc1)C(N)=O | 0.87 |
